From US8329645B2, “Polymyxin derivatives and uses thereof” (priority 2008, dated 2012)
Where a SMILES comes first, the peptide text is derived from it. Bridges are numbered along the chain shown (N, C = ends). [ ]: non-standard residue; d: D form. The star is where a group is joined. Decanoyl = CCCCCCCCCC(=O)*; Octanoyl = CCCCCCCC(=O)*; Dab = NCC[C@H](N)C(=O)O; Abu = CC[C@H](N)C(=O)O

Key:
E. coli IH3080 = assay: Sensitization to rifampin: growth inhibition around wells on LB plates containing rifampin; format: cell-based, Escherichia coli; details: 4 μg of compound
E. coli strains = format: cell-based, Escherichia coli
Procedure: (§1) Polymyxin B sulfate (Sigma-Aldrich, St. Louis, Mo., USA) was used as a control. […] Fourteen (14) strains (the F-strains) were purchased from Mobidiag Ltd., Helsinki, Finland. Besides bacteria, the MIC was also determined for the yeast Candida albicans (ATCC 28366 from ATCC). The inocula were prepared by adjusting the bacterial suspensions to a density equivalent to OD546 nm˜0.3 (˜10^8 CFU/ml˜0.5 McFarland) the yeast suspension to a density equivalent to OD546 nm˜0.75 (˜2×10^7 CFU/ml)._The suspensions were diluted to 10^7 CFU/ml. The plates were inoculated by using a Denley Multipoint Inoculator, 1 μl per spot corresponding to approx. 10^4 CFU/spot. Plates were incubated for 16-20 hours at 35° C. […] Both agents had good activity also against other polymyxin-susceptible strains of Enterobacteriaceae. […] S. aureus and C. albicans were resistant to the NAB peptides.

Pseudomonas aeruginosa = format: cell-based
Procedure: as §1

E. coli ATCC25922 = system: E. coli ATCC25922
Summary of the method: (§2)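 Read-out: MIC taken from the E-strip scale. Testing followed the manufacturer's instructions for strip use.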

K. pneumoniae ATCC13883 = system: K. pneumoniae ATCC13883
Summary of the method: as §2

E. coli IH3080 (O18:K1) = assay: Synergistic bactericidal activity with guinea pig serum (complement); format: cell-based, Escherichia coli
Procedure: The ability of NAB7061 to sensitize encapsulated, smooth strain of E. coli to the bactericidal action of normal guinea pig serum (GPS) was studied by the method described by Vaara et al. (1984). E. coli IH3080 (018,K1) was grown in LB broth (LB broth Lennox, Difco, BD, Sparks, Md., U.S.A) at 37° C. in a rotary shaker into early logarithmic growth phase, washed with PBS (phosphate-buffered saline, 8.0 g of NaCl, 0.2 g of KCl, 1.44 g of Na2HPO4×2H2O and 0.2 g of KH2PO4 per liter) and resuspended in PBS, to approx. 10^9 cells/ml). GPS was used as complement source. It was stored at −70° C. before use.
The experimental procedure was as follows. 10% GPS in PBS was inoculated with approx. 500 CFU (colony forming units) of bacteria per ml and pipetted in 0.2 ml aliquots into wells of microtiter plates. The wells already contained increasing amounts of NAB7061 in 0.020 ml of 0.9% NaCl. The plate was incubated at 37° C. for 2 h whereafter each well was emptied onto LB plates. The plates were incubated overnight at 37° C. and the developed colonies were counted.

[1] = Two-week intravenous toxicity study in young rats; format: in vivo; details: for lowest dose that negatively influenced the body weight gain: intravenously twice a day for two weeks
Procedure: Toxicity in young rats (weighing approx. 150 g in the beginning of the study) was determined by administering doses (1, 2, 4, 8, 16, and 32 mg/kg per day) of NAB7061 as well as the control compound polymyxin B intravenously twice (2) a day for two weeks. A group of ten (10) rats was studied for each dosage regimen. Clinical observations were made daily, the body weight measured twice weekly, and the food consumption twice weekly. In the end of week 2, all animals were sacrificed.
Histopathology of kidneys was performed for each animals and histopathology of all tissues was performed in three high-dose groups receiving NAB7061.

E. cloacae ATCC23355 [2] = assay: Growth inhibition around wells on LB agar plates; format: cell-based, Enterobacter cloacae; details: 4 μg
Procedure: (§3) From an overnight-grown culture of IH3080 on LB agar, a suspension of approx. 10^8 cells/ml was prepared in 0.9% NaCl. Aliquots of this suspension were then pipetted on the agar plates and the plates were gently shaken to spread the suspension evenly on the entire surface of the plate. Thereafter, the unabsorbed part of the suspension was removed by using a Pasteur pipette. After the surface had dried, small wells (diameter, 2 mm) were drilled on the plates (five wells per plate) by using a sterile sharp-edged narrow metal tube, single-use pipette tip, and vacuum suction. An alternative method used a swab to spread the inoculum. Samples (4 μl and 10 μl) of the peptide solution in 0.9% NaCl (at concentrations of 1 μg/ml and 0.1 μg/ml) were then pipetted to the wells and the sample fluids were allowed to absorb. Controls included 0.9% NaCl solution without the compound to be tested. The plates were then incubated for 18 h at 37° C. whereafter the diameters of growth inhibition zones around each well were measured; the diameter of the well itself was not reduced. Finally, the diameters were converted to surface areas of growth inhibition (in square mm).
(§4) The susceptibility of eleven Gram-negative bacterial strains (nine different species) to NAB734 and polymyxin B was compared by using the susceptibility determination method described in Example 2. The strains included those belonging to the species of Serratia marcescens and Proteus mirabilis, both species generally known to be resistant to polymyxin. Furthermore, the susceptibility determination was also performed by using the Gram-positive bacterium, Staphylococcus aureus, also generally known to be polymyxin-resistant. Ten of the strains originated from ATCC (American Type Culture Collection, Manassas, Va., U.S.A.), and one from CCUG (Culture Collection of University of Gothenburg, Sweden). The source of E. coli IH3080 has been described in Example 2. Polymyxin B sulfate was from Sigma-Aldrich (St. Louis, Mo., USA).

C. freundii ATCC8090 = assay: Growth inhibition around wells on LB agar plates; format: cell-based, Citrobacter freundii
Procedure: as §3, §4

P. mirabilis ATCC29906 = assay: Growth inhibition around wells on LB agar plates; format: cell-based, Proteus mirabilis
Procedure: as §3, §4

E. cloacae ATCC23355 [3] = assay: E-test MIC with or without NAB7061 (4 μg/ml), Mueller-Hinton agar; format: cell-based, Enterobacter cloacae
Summary of the method: as §2

Molecule: CCCCCCCC(=O)N[C@H](C(=O)N[C@H](CO)C(=O)N[C@H]1CCNC(=O)[C@H]([C@@H](C)O)NC(=O)[C@H](CCN)NC(=O)[C@H](CCN)NC(=O)[C@H](CC(C)C)NC(=O)[C@@H](Cc2ccccc2)NC(=O)[C@H](CCN)NC1=O)[C@@H](C)O [NAB 739, OA-Thr-DSer-cy[Dab-Dab-DPhe-Leu-Dab-Dab-Thr-]] (Octanoyl-T[dS][Dab][Dab][dF]L[Dab][Dab]T; lactam 3-C)
- growth inhibition around a well in the presence of rifampin (E. coli IH3080; rifampin 0 μg/ml): 133 square millimeters
- growth inhibition around a well in the presence of rifampin (E. coli IH3080; rifampin 0.1 μg/ml): 177 square millimeters
- growth inhibition around a well in the presence of rifampin (E. coli IH3080; rifampin 1.0 μg/ml): 201 square millimeters
- MIC values, range for E. coli strains (E. coli strains): 0.5 to 1 µg/mL

Molecule: CCCCCCCCCC(=O)N[C@H](C(=O)N[C@H](CO)C(=O)N[C@H]1CCNC(=O)[C@H]([C@@H](C)O)NC(=O)[C@H](CCN)NC(=O)[C@H](CCN)NC(=O)[C@H](CC(C)C)NC(=O)[C@@H](Cc2ccccc2)NC(=O)[C@H](CCN)NC1=O)[C@@H](C)O [NAB 740, DA-Thr-DSer-cy[Dab-Dab-DPhe-Leu-Dab-Dab-Thr-]] (Decanoyl-T[dS][Dab][Dab][dF]L[Dab][Dab]T; lactam 3-C)
- growth inhibition around a well in the presence of rifampin (E. coli IH3080; rifampin 0 μg/ml): 95 square millimeters
- growth inhibition around a well in the presence of rifampin (E. coli IH3080; rifampin 0.1 μg/ml): 95 square millimeters
- growth inhibition around a well in the presence of rifampin (E. coli IH3080; rifampin 1.0 μg/ml): 95 square millimeters
- MIC values, range for E. coli strains (E. coli strains): 1 to 2 µg/mL
- MIC, range for Pseudomonas aeruginosa (Pseudomonas aeruginosa): 4 to 8 µg/mL

Molecule: CCCCCCCC(=O)N[C@H](C(=O)N[C@@H](CC)C(=O)N[C@H]1CCNC(=O)[C@H]([C@@H](C)O)NC(=O)[C@H](CCN)NC(=O)[C@H](CCN)NC(=O)[C@H](CC(C)C)NC(=O)[C@@H](Cc2ccccc2)NC(=O)[C@H](CCN)NC1=O)[C@@H](C)O [NAB 7061, OA-Thr-Abu-cy[Dab-Dab-DPhe-Leu-Dab-Dab-Thr-]] (Octanoyl-T[Abu][Dab][Dab][dF]L[Dab][Dab]T; lactam 3-C)
- growth inhibition around a well in the presence of rifampin (E. coli IH3080; rifampin 0 μg/ml): 0 square millimeters
- MIC of NAB7061 (E. coli ATCC25922; ATCC 25922): 16 µg/mL
- MIC of NAB7061 (K. pneumoniae ATCC13883; ATCC 13883): > 16 µg/mL
- % survival after 2-hour treatment at 37° C. (E. coli IH3080 (O18:K1); 10% GPS, heat inactivated, NAB7061 2 μg/ml): 500%
- % survival after 2-hour treatment at 37° C. (E. coli IH3080 (O18:K1); 10% GPS, NAB7061 2 μg/ml): 2%
- % survival after 2-hour treatment at 37° C. (E. coli IH3080 (O18:K1); 10% GPS, NAB7061 4 μg/ml): 0%
- % survival after 2-hour treatment at 37° C. (E. coli IH3080 (O18:K1); none (PBS), NAB7061 2 μg/ml): 97%
- rise of blood urea nitrogen (BUN) versus control or low dose group ([1]; 16 mg/kg per day, end of the study): no such a rise was found
- lowest dose that negatively influenced the body weight gain ([1]; rats): 8 mg/kg per day
- general pathology and histopathology of organs and kidneys ([1]; rats, two weeks): No NAB7061-related pathological findings were found

Molecule: Polymyxin B [reference compound]
- growth inhibition around a well (E. cloacae ATCC23355 [2]): 95 square millimeters
- growth inhibition around a well (C. freundii ATCC8090; 4 μg): 95 square millimeters
- growth inhibition around a well (C. freundii ATCC8090; 10 μg): 154 square millimeters
- growth inhibition around a well (P. mirabilis ATCC29906; 4 μg): 0 square millimeters
- growth inhibition around a well (P. mirabilis ATCC29906; 10 μg): 0 square millimeters
- growth inhibition around a well in the presence of rifampin (E. coli IH3080; rifampin 0 μg/ml): 79 square millimeters
- growth inhibition around a well in the presence of rifampin (E. coli IH3080; rifampin 0.1 μg/ml): 95 square millimeters
- growth inhibition around a well in the presence of rifampin (E. coli IH3080; rifampin 1.0 μg/ml): 104 square millimeters
- Sensitization factor to antibiotic (MIC without / with 4 μg/ml of NAB 7061) (E. coli ATCC25922; E. coli ATCC25922): 5
- Sensitization factor to antibiotic (MIC without / with 4 μg/ml of NAB 7061) (K. pneumoniae ATCC13883; K. pneumoniae ATCC13883): 1
- Sensitization factor to antibiotic (MIC without / with 4 μg/ml of NAB 7061) (E. cloacae ATCC23355 [3]): 4
- lowest dose that negatively influenced the body weight gain ([1]; rats): 1 mg/kg per day
